Experimental data reported in ChEMBL document CHEMBL1201862, “PubChem BioAssay data set” (2004).
The source made the active and inactive calls.

What was measured:
[1] = human group III sPLA2 inhibitors, dose response, biochemical, QFRET, IC50 (AID 743457);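 note: green fluorescence rise as the enzyme cleaves BODIPY PC-A2 in liposomes; potency for inhibition of the enzyme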
[2] = ADAM10 inhibitors, peptide cleavage, dose response, biochemical, QFRET (AID 743254);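 note: ADAM10 enzyme with the DM2 quenched FRET peptide as substrate; EDANS fluorescence gain as the protease cuts the substrate; inhibitor potency against ADAM10 proteolytic activity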
[3] = biological target: Disintegrin and metalloproteinase domain-containing protein 17 (Homo sapiens, UniProt P78536); assay: ADAM17 protease inhibitors, dose response, counter-screen for ADAM10 exosite inhibitor project, biochemical, quenched FRET substrate (AID 743253)
Sequence of Disintegrin and metalloproteinase domain-containing protein 17 (P78536 whole entry, the tested form may be a part): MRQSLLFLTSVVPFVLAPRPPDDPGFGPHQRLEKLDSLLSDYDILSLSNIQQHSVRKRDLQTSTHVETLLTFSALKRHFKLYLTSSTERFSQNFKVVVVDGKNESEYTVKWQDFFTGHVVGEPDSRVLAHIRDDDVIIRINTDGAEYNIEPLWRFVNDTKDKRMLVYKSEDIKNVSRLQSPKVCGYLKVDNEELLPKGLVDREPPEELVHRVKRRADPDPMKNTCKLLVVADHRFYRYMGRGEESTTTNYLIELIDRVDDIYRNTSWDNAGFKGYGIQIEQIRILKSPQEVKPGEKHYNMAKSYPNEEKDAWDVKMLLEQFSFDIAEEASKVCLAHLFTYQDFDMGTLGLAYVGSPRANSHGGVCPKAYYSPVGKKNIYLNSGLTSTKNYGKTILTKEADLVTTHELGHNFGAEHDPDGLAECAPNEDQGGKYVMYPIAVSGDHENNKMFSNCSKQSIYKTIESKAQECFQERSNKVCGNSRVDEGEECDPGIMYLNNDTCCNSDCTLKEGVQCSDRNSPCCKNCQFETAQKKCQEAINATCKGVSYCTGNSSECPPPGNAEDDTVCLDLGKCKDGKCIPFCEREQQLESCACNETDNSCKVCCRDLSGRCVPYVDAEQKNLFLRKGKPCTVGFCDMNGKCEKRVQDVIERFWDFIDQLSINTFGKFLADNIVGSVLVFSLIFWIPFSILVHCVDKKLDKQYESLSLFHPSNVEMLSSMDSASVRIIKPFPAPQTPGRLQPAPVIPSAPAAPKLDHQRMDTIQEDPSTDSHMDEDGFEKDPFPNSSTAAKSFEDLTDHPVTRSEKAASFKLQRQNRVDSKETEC

[4] = Luminescence Cell-Based Dose Retest to Confirm Inhibitors of Cancer Stem Cells. [Related pubchem assays (depositor defined):AID2717, AID2721]; assay type: functional; settings: Homo sapiens
[5] = biological target: T1, Long-chain-fatty-acid--AMP ligase FadD28 (Mycobacterium tuberculosis, UniProt P9WQ59); assay: Fluorescence polarization aasay to screen for inhibitors that compete for the binding of FadD28 to a bisubstrate Measured in Biochemical System Using Plate Reader - 2147-01_Inhibitor_Dose_CherryPick_Activity.; assay type: functional, Mycobacterium tuberculosis H37Rv
T1 sequence (P9WQ59 whole entry): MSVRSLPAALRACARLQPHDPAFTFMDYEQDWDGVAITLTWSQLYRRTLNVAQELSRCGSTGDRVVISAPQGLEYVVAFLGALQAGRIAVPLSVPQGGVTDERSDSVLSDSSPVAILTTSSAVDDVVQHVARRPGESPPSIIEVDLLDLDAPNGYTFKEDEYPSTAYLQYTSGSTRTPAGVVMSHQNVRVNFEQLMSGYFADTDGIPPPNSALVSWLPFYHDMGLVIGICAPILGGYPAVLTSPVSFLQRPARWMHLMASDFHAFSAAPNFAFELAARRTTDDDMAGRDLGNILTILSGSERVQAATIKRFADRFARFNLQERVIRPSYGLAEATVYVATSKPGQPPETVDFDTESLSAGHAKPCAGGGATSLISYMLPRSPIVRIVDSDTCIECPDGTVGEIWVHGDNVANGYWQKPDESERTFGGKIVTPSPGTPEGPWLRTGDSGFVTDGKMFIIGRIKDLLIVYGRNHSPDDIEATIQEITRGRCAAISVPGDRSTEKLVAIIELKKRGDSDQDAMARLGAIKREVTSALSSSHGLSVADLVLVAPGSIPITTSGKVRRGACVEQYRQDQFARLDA

[6] = biological target: Cytochrome P450 2C19 (Homo sapiens, UniProt P33261); assay: Cytochrome panel assay with activity outcomes. Panel member name: p450-cyp2c19 Compounds with AC50 equal or less than 10 uM are considered active; assay type: functional; settings: read-out: AC50
Sequence of Cytochrome P450 2C19 (P33261 whole entry): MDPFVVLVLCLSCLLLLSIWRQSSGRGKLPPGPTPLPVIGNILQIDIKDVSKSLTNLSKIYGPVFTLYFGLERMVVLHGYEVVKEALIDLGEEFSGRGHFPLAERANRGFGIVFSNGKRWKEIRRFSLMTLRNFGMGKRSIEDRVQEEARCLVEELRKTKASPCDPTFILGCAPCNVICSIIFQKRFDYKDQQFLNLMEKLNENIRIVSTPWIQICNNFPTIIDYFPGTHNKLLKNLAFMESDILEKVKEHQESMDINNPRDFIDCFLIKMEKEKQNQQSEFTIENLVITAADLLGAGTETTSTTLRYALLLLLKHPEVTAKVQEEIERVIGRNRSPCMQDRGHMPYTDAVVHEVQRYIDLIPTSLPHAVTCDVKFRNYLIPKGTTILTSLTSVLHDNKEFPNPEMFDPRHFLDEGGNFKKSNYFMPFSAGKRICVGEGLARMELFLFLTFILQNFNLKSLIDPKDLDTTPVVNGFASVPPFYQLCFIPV

[7] = biological target: T2, Endoribonuclease toxin MazF (Escherichia coli K-12, UniProt P0AE70); assay: fluorescent RNA oligo signal without MazF, dose response, counter-screen for MazEF activator project, biochemical, fluorescence, single-stranded RNase substrate (AID 588502); assay type: functional
T2 sequence (P0AE70 whole entry): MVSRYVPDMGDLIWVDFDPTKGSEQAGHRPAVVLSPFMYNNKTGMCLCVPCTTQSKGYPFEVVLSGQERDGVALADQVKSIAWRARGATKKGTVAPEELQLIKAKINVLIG

[8] = biological target: T2, Endoribonuclease toxin MazF; assay: MazF toxin RNase activators, dose response, biochemical, fluorescence, single-stranded RNA substrate, uHTS hits (AID 588481); assay type: functional
[9] = biological target: T3, DNA repair protein RAD52 homolog (Homo sapiens, UniProt P43351); assay type: functional, biochemical
T3 sequence (P43351 whole entry): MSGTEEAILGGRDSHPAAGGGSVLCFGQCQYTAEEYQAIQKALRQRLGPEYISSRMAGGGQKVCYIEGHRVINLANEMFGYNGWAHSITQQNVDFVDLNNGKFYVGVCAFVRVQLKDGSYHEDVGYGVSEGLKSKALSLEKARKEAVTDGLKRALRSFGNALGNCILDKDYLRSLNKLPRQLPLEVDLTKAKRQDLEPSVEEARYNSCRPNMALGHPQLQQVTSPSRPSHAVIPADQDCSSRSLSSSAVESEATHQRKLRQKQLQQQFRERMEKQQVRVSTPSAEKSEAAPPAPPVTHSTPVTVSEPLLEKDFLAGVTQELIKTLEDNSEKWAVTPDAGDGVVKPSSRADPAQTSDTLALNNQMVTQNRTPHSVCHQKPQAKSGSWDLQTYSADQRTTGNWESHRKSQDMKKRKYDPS

Structure (SMILES): O=C(NN=C(S)NC1CCCCC1)c1ccccc1O
- IC50 [1]: > 122 µM (inactive)

Structure (SMILES): Cc1ccc(-n2c(SCC(=O)Nc3cccc(S(N)(=O)=O)c3)nc3ccccc32)cc1
- IC50 [2]: > 69.5 µM (inactive)
- IC50 [3]: > 69.5 µM (inactive)

Structure (SMILES): O=C(N=CNOCc1ccc(Cl)cc1Cl)NOCc1ncc(C(F)(F)F)cc1Cl
- IC50 [2]: 12.9 µM (inactive)
- AC50 [4]: 4.02 µM (active)

Structure (SMILES): O=C(NC=NOCc1ccc(Cl)cc1Cl)NOCc1ncc(C(F)(F)F)cc1Cl
- IC50 [3]: > 69.5 µM (inactive)

Structure (SMILES): O=C(NNC(=S)NC(=O)c1ccccc1[N+](=O)[O-])c1ccccc1Cl
- IC50 [1]: 115 µM (inactive)

Structure (SMILES): Cc1ccccc1OCC(=O)NNC(=S)NC(=O)c1ccccc1[N+](=O)[O-]
- IC50 [1]: 64.9 µM (inactive)

Structure (SMILES): CN(c1ccc(C(=O)NCCSCc2ccccc2)cc1)S(=O)(=O)c1ccccc1
- AC50 [5]: > 100 µM (inactive)

Structure (SMILES): CN(C)CCCn1c2c3ccccc3ccc2c2oc(=O)c3ccccc3c21
- AC50 [6]: 0.794 µM (inconclusive)
- EC50 [7]: > 99 µM (inactive)
- EC50 [8]: > 99 µM (inactive)
- AC50 [9]: < 0.681 µM (active)
